# Reference: patent publication US20220081389A1, “AMIDE COMPOUNDS AND PREPARATION METHOD THEREFOR AND USE THEREOF” (CAC NANTONG CHEMICAL CO., LTD., priority 2019, published 2022)
# Like-named read-outs stand apart in the source and are kept apart here.
# Experiments:
# Aphis craccivora = assay: Insecticidal activity test against Aphis craccivora (broad bean leaf dip); format: in vivo
# Experimental: (§1) Various kinds of pests were tested with the compounds of this invention. Unless otherwise specified, the preparation method of samples and definition of the mortality rate of the insects in the embodiments and this invention are as follows: the preparation method of samples is to weigh 10 mg of the compound and dissolve it in 1 mL DMF to prepare 10,000 ppm mother liquid, which is diluted to necessary concentration by 0.05% Tween-80 water, respectively. The mortality rate is the mortality rate of pests under the test concentration, whose calculating formula is: mortality rate (%)=Number of dead pests/total pests*100
# Cut a single leaf of broad bean with stem and insert it into a glass jar filled with water (capacity of 20 ml). Five adult Aphis craccivoras were seeded onto each leaf, and covered with plastic cups with holes. The adult aphids were removed after 24 hours. Before the experiment, the base number was investigated and the single leaf with more than 15 nymphs aphids was selected for the experiment. Dip leaf of broad bean with nymphs aphids into the solution of test compound 10s, take out and dry them in a cool environment, 3 parallel repeats. Place the glass jars on the shelf of observation room and covered with plastic cups with holes. 20-25° C. with 14 hL: 10 hD illumination. The number of Aphis craccivora death and alive was investigated on the 3rd day after treatment, and the mortality was calculated.
# Mythimna separata = assay: Insecticidal activity test against Mythimna separata (leaf dip, maize seedlings); format: in vivo; conditions: foliar; for mortality at 0.04 ppm: 3rd day after treatment, read-out: insecticidal activity (mortality of Mythimna separate)
# Experimental: as §1
# (§2) The leaf dip method was used to assay the insecticidal activity. Cut above ground part of fresh maize seedlings (about 10 cm). Dip the maize seedlings into the solution prepared with compound of this invention for 10 seconds and dry them in a cool environment. Then cut the dry maize seedlings into 3-5 cm leaf sections and put 3 leaf sections into each petri dish. Put ten of 3th-instar larvae of Mythimna separatas into each dish, which was repeated by 3 times. Then the dishes were placed in an illumination incubator and incubated with 14 hL: 10 hD illumination at 25° C. Symptoms were investigated on the 1st, 2nd and 3rd day after treatment, and the mortality was calculated.
# Spodoptera frugiperda = assay: Insecticidal activity test against Spodoptera frugiperda (leaf dip, maize seedlings); format: in vivo; conditions: for mortality at 0.1 ppm / mortality at 1 ppm: Spodoptera frugiperda, foliar; for mortality at 1 ppm: read-out: insecticidal activity (mortality of Spodoptera frugiperda); for Mortality (%) against Spodoptera frugiperda, 1 d / Mortality (%) against Spodoptera frugiperda, 2 d / Mortality (%) against Spodoptera frugiperda, 3 d: 0.1 ppm, leaf dip, 3rd-instar larvae; for Mortality (%) against Spodoptera frugiperda, 1 d: 1st day after treatment; for Mortality (%) against Spodoptera frugiperda, 2 d: 2nd day after treatment; for Mortality (%) against Spodoptera frugiperda, 3 d: 3rd day after treatment
# Experimental: as §1
# as §2, with “Spodoptera frugiperda” for “Mythimna separatas”
# Spodoptera litura = assay: Insecticidal activity test against Spodoptera litura (leaf dip, cabbage leaf discs); format: in vivo; conditions: foliar; for mortality at 0.4 ppm: 3rd day after treatment; for mortality at 0.04 ppm / mortality at 0.1 ppm: 72 h, 3 d
# Experimental: as §1
# The leaf dip method was used to assay the insecticidal activity. Healthy and pesticide-untreated cabbage leaves was selected to prepare 1 cm of leaf discs by diameter. Dip the leaf discs into the solution prepared with compound of this invention for 10 seconds and dry them in a cool […] environment. Then place them in 24-well plate with 3 discs per pore. Put 10 of Spodoptera litura into each pore, which was repeated by 3 times. The 24-well plate was placed in an illumination incubator and incubated with 14 hL: 10 hD illumination at 25° C. The dead number of Spodoptera litura was investigated on the 3rd day after treatment, and the mortality was calculated.
# Chilo suppressalis = assay: Insecticidal activity test against Chilo suppressalis (rice stem dip); format: in vivo
# Experimental: as §1
# The rice was cultivated in a plastic pot with a diameter of 9 cm and a height of 10 cm. When the rice grew to 25 cm, the aerial part of robust and consistent rice seedlings was selectively cut. Their leaves were removed and their stems of about 8 cm were kept for use. Pour the solution prepared with compound of this invention into the Petri dish (about 40 mL) and dip the rice stems into the solution for 10 seconds. Take rice stems out and dry them in a cool environment. Put a wet cotton ball at the bottom of finger-like glass tube and 5 rice stems in each tube. Put 10 of 3rd-instar larvae of Chilo suppressa into each tube, which was repeated by 3 times. Seal the tubes with black cotton cloth and tighten them with rubber band. The tubes were placed in a illumination incubator at 28° C. and incubated in the dark (incubated without light). The dead number of Chilo suppressalis was investigated 3 days after treatment. The mortality was calculated.
# [1] = Aphis craccivora, foliar, 40 ppm, 3rd day after treatment, read-out: insecticidal activity (mortality of Aphis craccivora)
# [2] = 24 h, 1 d, read-out: Mortality (%) 1 d
# [3] = 48 h, 2 d, read-out: Mortality (%) 2 d
# [4] = 72 h, 3 d, read-out: Mortality (%) 3 d
# [5] = 24 h, read-out: Mortality (%) against Spodoptera frugiperda, 1 d
# [6] = 48 h, read-out: Mortality (%) against Spodoptera frugiperda, 2 d
# [7] = 72 h, read-out: Mortality (%) against Spodoptera frugiperda, 3 d
# [8] = 3rd day after treatment, read-out: insecticidal activity (mortality of Chilo suppressalis)
# [9] = 72 h, 3 d, read-out: Mortality (%, 3 d) 1 ppm
# [10] = 72 h, 3 d, read-out: Mortality (%, 3 d) 2 ppm
compound,measurement,setting,value
"O=C(Nc1c(Br)cc(C(F)(C(F)(F)F)C(F)(F)F)cc1OC(F)F)c1cccc(N(CC2CC2)C(=O)c2ccc(F)cc2)c1F [Compound 31, N-(2-bromo-6-(difluoromethoxy)-4-(perfluoropropan-2-yl)phenyl)-3-(N-(cyclopropylmethyl)-4-fluorobenzamido)-2-fluorobenzamide]",mortality at 40 ppm,Aphis craccivora; [1],≥ 90%
same,mortality at 0.04 ppm,Mythimna separata,≥ 90%
same,mortality at 0.01 ppm,Mythimna separata; [2],13.3%
same,mortality at 0.01 ppm,Mythimna separata; [3],63.3%
same,mortality at 0.01 ppm,Mythimna separata; [4],70%
same,mortality at 0.1 ppm,Spodoptera frugiperda; [5],100%
same,mortality at 0.1 ppm,Spodoptera frugiperda; [6],100%
same,mortality at 0.1 ppm,Spodoptera frugiperda; [7],100%
same,mortality at 1 ppm,Spodoptera frugiperda,≥ 90%
same,mortality at 0.4 ppm,Spodoptera litura,≥ 90%
same,mortality at 1 ppm,Chilo suppressalis; [8],≥ 90%
same,mortality at 0.5 ppm,"Chilo suppressalis; 72 h, 3 d",83.3%
same,mortality at 1 ppm,Chilo suppressalis; [9],100%
same,mortality at 2 ppm,Chilo suppressalis; [10],100%
"CCN(C(=O)c1ccc(F)cc1)c1cccc(C(=O)Nc2c(Br)cc(C(F)(C(F)(F)F)C(F)(F)F)cc2OC(F)F)c1F [KC1, reference compound]",mortality at 0.01 ppm,Mythimna separata; [2],6.67%
same,mortality at 0.01 ppm,Mythimna separata; [3],16.7%
same,mortality at 0.01 ppm,Mythimna separata; [4],20%
O=C(Nc1c(Br)cc(C(F)(C(F)(F)F)C(F)(F)F)cc1OC(F)F)c1cccc(N(CC2CC2)C(=O)c2ccnc(F)c2)c1F [Compound 120],"Mortality (%) against Spodoptera frugiperda, 1 d",Spodoptera frugiperda,58.33%
same,"Mortality (%) against Spodoptera frugiperda, 2 d",Spodoptera frugiperda,100%
same,"Mortality (%) against Spodoptera frugiperda, 3 d",Spodoptera frugiperda,100%
"CC(C1CC1)N(C(=O)c1ccnc(Cl)c1)c1cccc(C(=O)Nc2c(Br)cc(C(F)(C(F)(F)F)C(F)(F)F)cc2C(F)(F)F)c1F (stereo not drawn) [Compound 124, N-(3-((2-bromo-4-(perfluoropropan-2-yl)-6-(trifluoromethyl)phenyl)carbamoyl)-2-fluorophenyl)-2-chloro-N-(1-cyclopropylethyl)isonicotinamide]",mortality at 2 ppm,Chilo suppressalis; [8],≥ 90%
O=C(Nc1c(Br)cc(C(F)(C(F)(F)F)C(F)(F)F)cc1C(F)(F)F)c1cccc(N(CC2CC2)C(=O)c2ccncc2)c1F [Compound 101],"Mortality (%, 3 d) 1 ppm","Aphis craccivora; 1 ppm, 3 d",39.11%
same,"Mortality (%, 3 d) 10 ppm","Aphis craccivora; 10 ppm, 3 d",83.26%
same,"Mortality (%, 3 d) 40 ppm","Aphis craccivora; 40 ppm, 3 d",100.00%
"O=C(Nc1c(Br)cc(C(F)(C(F)(F)F)C(F)(F)F)cc1C(F)(F)F)c1cccc(N(CC2CC2)C(=O)c2ccc(F)cc2)c1F [KC4, reference compound]",mortality at 1 ppm,"Aphis craccivora; Aphis craccivora, foliar, 72 h, 1 ppm, 3 d",0%
same,mortality at 10 ppm,"Aphis craccivora; Aphis craccivora, foliar, 72 h, 10 ppm, 3 d",47.1%
same,mortality at 40 ppm,"Aphis craccivora; Aphis craccivora, foliar, 72 h, 40 ppm, 3 d, read-out: Mortality (%, 3 d) 40 ppm",65.2%
same,mortality at 0.04 ppm,Spodoptera litura,8.83%
same,mortality at 0.1 ppm,Spodoptera litura,75%
O=C(Nc1c(Br)cc(C(F)(C(F)(F)F)C(F)(F)F)cc1OC(F)F)c1cccc(N(CC2CC2)C(=O)c2ccc(Cl)cc2)c1F [Compound 44],"Mortality (%) against Spodoptera frugiperda, 1 d",Spodoptera frugiperda,37.50%
same,"Mortality (%) against Spodoptera frugiperda, 2 d",Spodoptera frugiperda,62.50%
same,"Mortality (%) against Spodoptera frugiperda, 3 d",Spodoptera frugiperda,91.67%
"O=C(Nc1c(Br)cc(C(F)(C(F)(F)F)C(F)(F)F)cc1C(F)(F)F)c1cccc(N(CC2CC2)C(=O)c2ccc(F)nc2)c1F [Compound 106, N-(3-((2-bromo-4-(perfluoropropan-2-yl)-6-(trifluoromethyl)phenyl)carbamoyl)-2-fluorophenyl)-N-(cyclopropylmethyl)-6-fluoronicotinamide]",mortality at 0.04 ppm,Mythimna separata,≥ 90%
same,mortality at 0.1 ppm,Spodoptera frugiperda; [5],41.7%
same,mortality at 0.1 ppm,Spodoptera frugiperda; [6],62.5%
same,mortality at 0.1 ppm,Spodoptera frugiperda; [7],95.8%
same,mortality at 1 ppm,Spodoptera frugiperda,≥ 90%
same,mortality at 0.4 ppm,Spodoptera litura,≥ 90%
same,mortality at 1 ppm,Chilo suppressalis; [8],≥ 90%
N#Cc1ccc(C(=O)N(CC2CC2)c2cccc(C(=O)Nc3c(Br)cc(C(F)(C(F)(F)F)C(F)(F)F)cc3OC(F)F)c2F)cc1 [Compound 14],"Mortality (%) against Spodoptera frugiperda, 1 d",Spodoptera frugiperda,29.17%
same,"Mortality (%) against Spodoptera frugiperda, 2 d",Spodoptera frugiperda,79.17%
same,"Mortality (%) against Spodoptera frugiperda, 3 d",Spodoptera frugiperda,95.83%
"O=C(Nc1c(Br)cc(C(F)(C(F)(F)F)C(F)(F)F)cc1OC(F)F)c1cccc(N(CC2CC2)C(=O)c2ccc(F)nc2)c1F [Compound 118, N-(3-((2-bromo-6-(difluoromethoxy)-4-(perfluoropropan-2-yl)phenyl)carbamoyl)-2-fluorophenyl)-N-(cyclopropylmethyl)-6-fluoronicotinamide]",mortality at 40 ppm,Aphis craccivora; [1],≥ 90%
same,mortality at 0.04 ppm,Mythimna separata,≥ 90%
same,mortality at 0.1 ppm,Spodoptera frugiperda; [5],29.2%
same,mortality at 0.1 ppm,Spodoptera frugiperda; [6],66.7%
same,mortality at 0.1 ppm,Spodoptera frugiperda; [7],91.7%
same,mortality at 1 ppm,Spodoptera frugiperda,≥ 90%
same,mortality at 0.4 ppm,Spodoptera litura,≥ 90%
same,mortality at 0.04 ppm,Spodoptera litura,66.7%
same,mortality at 0.1 ppm,Spodoptera litura,95.8%
same,mortality at 1 ppm,Chilo suppressalis; [8],≥ 90%
"N#Cc1ccc(C(=O)N(CC2CC2)c2cccc(C(=O)Nc3c(Br)cc(C(C(F)(F)F)C(F)(F)F)cc3OC(F)F)c2F)cc1 [Compound 26, N-(2-bromo-6-(difluoromethoxy)-4-(1,1,1,3,3,3-hexafluoropropan-2-yl)phenyl)-3-(4-cyano-N-(cyclopropylmethyl)benzamido)-2-fluorobenzamide]",melting point,,133.1 to 135.5 °C
"O=C(Nc1c(Br)cc(C(F)(C(F)(F)F)C(F)(F)F)cc1OC(F)F)c1cccc(N(CC2CC2)C(=O)c2ccccc2)c1F [Compound 1, N-(2-bromo-4-(perfluoropropan-2-yl)-6-(difluoromethoxy)phenyl)-3-(N-(cyclopropylmethyl)benzamido)-2-fluorobenzamide]",mortality at 0.04 ppm,Mythimna separata,≥ 90%
same,mortality at 1 ppm,Spodoptera frugiperda,≥ 90%
same,mortality at 0.4 ppm,Spodoptera litura,≥ 90%
same,mortality at 1 ppm,Chilo suppressalis; [8],≥ 90%
same,mortality at 0.5 ppm,"Chilo suppressalis; 72 h, 3 d",76.7%
same,mortality at 1 ppm,Chilo suppressalis; [9],96.7%
same,mortality at 2 ppm,Chilo suppressalis; [10],100%
"O=C(Nc1c(Br)cc(C(F)(C(F)(F)F)C(F)(F)F)cc1OC(F)(F)F)c1cccc(N(CC2CC2)C(=O)c2ccccc2)c1F [KC3, reference compound]",mortality at 0.1 ppm,Spodoptera frugiperda; [5],0%
same,mortality at 0.1 ppm,Spodoptera frugiperda; [6],0%
same,mortality at 0.1 ppm,Spodoptera frugiperda; [7],4.17%
same,mortality at 0.5 ppm,"Chilo suppressalis; 72 h, 3 d",20%
same,mortality at 1 ppm,Chilo suppressalis; [9],80%
same,mortality at 2 ppm,Chilo suppressalis; [10],96.7%
O=C(Nc1c(Br)cc(C(F)(C(F)(F)F)C(F)(F)F)cc1OC(F)F)c1cccc(N(CC2CC2)C(=O)c2ccnc(Cl)c2)c1F [Compound 119],"Mortality (%) against Spodoptera frugiperda, 1 d",Spodoptera frugiperda,54.17%
same,"Mortality (%) against Spodoptera frugiperda, 2 d",Spodoptera frugiperda,79.17%
same,"Mortality (%) against Spodoptera frugiperda, 3 d",Spodoptera frugiperda,91.67%
"CCN(C(=O)c1ccncc1)c1cccc(C(=O)Nc2c(Br)cc(C(F)(C(F)(F)F)C(F)(F)F)cc2OC(F)F)c1F [KC2, reference compound]",mortality at 0.1 ppm,Spodoptera frugiperda; [5],0%
same,mortality at 0.1 ppm,Spodoptera frugiperda; [6],8.33%
same,mortality at 0.1 ppm,Spodoptera frugiperda; [7],20.8%
